Some results are limits rather than exact numbers.

`CS(=O)(=O)c1cc(-c2ccccc2)ncn1` displayed a melting point of 109 to 111 °C. In the case of `NCC1c2ccccc2CCN1CC(O)CN1CCOCC1` (stereo unspecified), the melting point was 138 to 139 °C.

Regarding `CCn1cc(C(=O)O)c(=O)c2cc(F)c(C(C)=O)c(F)c21`, the melting point lay within 250 to 251 °C. Then `O=[N+]([O-])C(Sc1ccccc1)=C1NCCCS1`, with 144 to 147 °C. `Cc1nc2c(c(Cl)c1C(=O)NC(=N)N)CCCCC2` returned a melting point of 210 to 212 °C.

`CC(=O)c1c(C)c(NC(=O)CC(C)(C)C)c(C)c2c1S(=O)(=O)CC2c1ccc(C(C)C)cc1` (stereo unspecified) came in with a melting point of 184 to 186 °C.

The compound `CCOC(=O)c1c(N2CCN(C(=O)c3cccs3)CC2)c2c(C)csc2n(Cc2ccccc2)c1=O` had a melting point of 195 °C.

On to `CC(C)n1nc(-c2c(-c3ccccc3)nc(N)nc2-n2cnc3ccccc32)ccc1=O`, for which the melting point is 242 to 244 °C.

As for `CC(=O)OC1CSC(Oc2cccc3oc(C)nc23)C(OC(C)=O)C1OC(C)=O` (stereo unspecified), the melting point lay within 149 to 151 °C. To `Cc1nc(-n2cnn(Cc3ccc(F)cc3)c2=O)sc1C(=O)NCc1cnn(C)c1` belongs 205 to 206 °C.

`CN(C)c1cc(C(O)CNC(C)(C)C)ccc1O` (stereo unspecified) registered a melting point of 108 to 110 °C. The compound `CN1CCC(N(C)S(=O)(=O)c2ccc(Nc3nc(Cl)cc(Nc4ccc(F)cc4)n3)cc2)CC1` had a melting point of 140 to 142 °C.

`COc1nc(Cl)cnc1N`: the melting point is 102 to 103 °C. In turn, `CCOCCC(=O)OC1(C(=O)CO)CCC2C3CCC4=CC(=O)CCC4(C)C3C(O)CC21C` (stereo unspecified) came in with a melting point of 149 °C. Then `CN1CCC(C(=O)Nc2ccc(CN(C)C3CCOCC3)cc2)=Cc2cc(-c3ccc(C(F)(F)F)cc3)ccc21`, with 188 °C; and `CC1N=C(c2ccccc2F)c2cc(I)ccc2NC1=O` (stereo unspecified), with 211 °C; and `CCCCNc1n[nH]c(C)c1C(=O)OCC`, with 109 to 110 °C. To `O=C(CCN1CCOCC1)Nc1cc(-c2nnc(CCc3cccc(F)c3)o2)ccn1` belongs 149 to 150 °C; to `CC(=O)c1c(O)cccc1OCC(C)(O)Oc1ccc(Br)cc1` (stereo unspecified), 102 to 103 °C. Then `OCc1cc(Cc2ccccc2)cs1`, with 33 to 34 °C. `O=C(Nc1nnn[nH]1)c1csc(-c2ccco2)n1` returned a melting point of 275 to 277 °C. On to `CC(c1cccs1)N(O)C(N)=O` (stereo unspecified), for which the melting point worked out at 130 °C. To `COc1cc2c(cc1C#Cc1ccccc1)NC(=O)CC(c1cccc(C#N)c1)=N2` belongs above 250 °C. To `COCCOc1cc2ncc(C#N)c(Nc3cc(OC)c(Cl)cc3Cl)c2cc1OC` belongs 210 to 212 °C.

`C#CCCN1CC=C(c2ccccc2)CC1` showed a melting point of 36.5 to 37.5 °C. Then `CCc1cc2c(s1)-n1nc(C(N)=O)nc1C(OC)N=C2c1ccccc1Cl` (stereo unspecified), with 200 to 201 °C; and `CCOCCNC(=O)c1cc2c(nc(C)n2C)c2c1CCC1(Cc3ccccc3C1)N2`, with 180 to 181 °C. To `c1ccc(Cn2cnc3c(OC4CN5CCC4CC5)nccc32)cc1` (stereo unspecified) belongs 162 to 183 °C; to `COC(=O)c1c(C(F)F)nc(C(F)(F)F)c(C(O)c2cccs2)c1CC(C)C` (stereo unspecified), 78 to 88 °C; to `CCCCCCCCCCc1cc(CO)on1`, 55 to 56 °C.

In turn, `CC1(C)Cc2cc(S(N)(=O)=O)ccc2O1` displayed a melting point of 157 to 160 °C.

For `O=C1NCC(Cc2ccccc2)C2=C1N=C1N=C(N3CCOCC3)NN1C2` (stereo unspecified), the melting point was in the range of 315 to 317 °C. Then `S=C=Nc1ccc2oc(-c3ccc(CN4CCOCC4)s3)nc2c1`, with 135 to 138 °C. To `O=C(Nc1ccncn1)c1ccccc1SSc1ccccc1C(=O)Nc1ccncn1` belongs 234 to 235 °C; to `NC(=S)NN=C(CCCNC(=O)C1CCCCC1)c1ccccc1`, 158 to 159 °C.

Consider `CCCN(c1ccc(O)c(Cl)c1)S(=O)(=O)c1ccc(O)cc1`, for which the melting point was in the range of 138 to 140 °C.

Usually melting point stands for the temperature of the solid-liquid transition.

These data come from a melting point compilation (Tetko et al.; mined from patent text by program, amines drawn as free bases though some values may be those of a salt).
